# Measurements reported in ChEMBL document CHEMBL1201861, “Genomics of Drug Sensitity in Cancer screening data, Wellcome Trust Sanger Institute”.
# Tested on: OC-314
# Experiment: cells
# Format: functional, cell-based, Homo sapiens
# Settings: Homo sapiens, OC-314
# Description: SANGER: Inhibition of human OC-314 cell growth in a cell viability assay.
row,Structure (SMILES),IC50 [µM]
1,CC(C)CCN1c2nc(Nc3cc(F)c(O)c(F)c3)ncc2N(C)C(=O)C1C (configuration not stated),> 5

# Tested on: ABC-1;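 note: growth inhibition of human ABC-1 cells, read out by a cell viability assay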
# Experiment: cells
# Format: functional, cell-based, Homo sapiens
# Settings: Homo sapiens, ABC-1
# Description: SANGER: Inhibition of human ABC-1 cell growth in a cell viability assay.
row,Structure (SMILES),IC50 [µM]
1,CC(C)CCN1c2nc(Nc3cc(F)c(O)c(F)c3)ncc2N(C)C(=O)C1C (configuration not stated),> 5

# Tested on: SW1783;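 note: cell growth inhibition measured with a viability assay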
# Experiment: cells
# Format: functional, cell-based, Homo sapiens
# Settings: Homo sapiens, SW1783
# Description: SANGER: Inhibition of human SW1783 cell growth in a cell viability assay.
row,Structure (SMILES),IC50 [µM]
1,CC(C)CCN1c2nc(Nc3cc(F)c(O)c(F)c3)ncc2N(C)C(=O)C1C (configuration not stated),> 5

# Tested on: DBTRG-05MG;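 note: cell viability assay measuring growth inhibition of human DBTRG-05MG cells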
# Experiment: cells
# Format: functional, cell-based, Homo sapiens
# Settings: Homo sapiens, DBTRG-05MG
# Description: SANGER: Inhibition of human DBTRG-05MG cell growth in a cell viability assay.
row,Structure (SMILES),IC50 [µM]
1,CC(C)CCN1c2nc(Nc3cc(F)c(O)c(F)c3)ncc2N(C)C(=O)C1C (configuration not stated),> 5

# Tested on: HTC-C3;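 note: inhibition of cell growth, read out with a cell viability assay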
# Experiment: cells
# Format: functional, cell-based, Homo sapiens
# Settings: Homo sapiens, HTC-C3
# Description: SANGER: Inhibition of human HTC-C3 cell growth in a cell viability assay.
row,Structure (SMILES),IC50 [µM]
1,CC(C)CCN1c2nc(Nc3cc(F)c(O)c(F)c3)ncc2N(C)C(=O)C1C (configuration not stated),> 5

# Tested on: VMRC-RCZ;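 note: growth inhibition measured with a cell viability assay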
# Experiment: cells
# Format: functional, cell-based, Homo sapiens
# Settings: Homo sapiens, VMRC-RCZ
# Description: SANGER: Inhibition of human VMRC-RCZ cell growth in a cell viability assay.
row,Structure (SMILES),IC50 [µM]
1,CC(C)CCN1c2nc(Nc3cc(F)c(O)c(F)c3)ncc2N(C)C(=O)C1C (configuration not stated),> 5

# Tested on: CHL-1;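 note: cell growth inhibition, read out with a cell viability assay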
# Experiment: cells
# Format: functional, cell-based, Homo sapiens
# Settings: Homo sapiens, CHL-1
# Description: SANGER: Inhibition of human CHL-1 cell growth in a cell viability assay.
row,Structure (SMILES),IC50 [µM]
1,CC(C)CCN1c2nc(Nc3cc(F)c(O)c(F)c3)ncc2N(C)C(=O)C1C (configuration not stated),1.96

# Tested on: HT-1080
# Experiment: cells
# Format: functional, cell-based, Homo sapiens
# Settings: Homo sapiens, HT-1080
# Description: SANGER: Inhibition of human HT-1080 cell growth in a cell viability assay.
row,Structure (SMILES),IC50 [µM]
1,CC(C)CCN1c2nc(Nc3cc(F)c(O)c(F)c3)ncc2N(C)C(=O)C1C (configuration not stated),> 5

# Tested on: HSC-3
# Experiment: cells
# Format: functional, cell-based, Homo sapiens
# Settings: Homo sapiens, HSC-3
# Description: SANGER: Inhibition of human HSC-3 cell growth in a cell viability assay.
row,Structure (SMILES),IC50 [µM]
1,CC(C)CCN1c2nc(Nc3cc(F)c(O)c(F)c3)ncc2N(C)C(=O)C1C (configuration not stated),0.818

# Tested on: 786-0
# Experiment: cells
# Format: functional, cell-based, Homo sapiens
# Settings: Homo sapiens
# Description: SANGER: Inhibition of human 786-0 cell growth in a cell viability assay.
row,Structure (SMILES),IC50 [µM]
1,CC(C)CCN1c2nc(Nc3cc(F)c(O)c(F)c3)ncc2N(C)C(=O)C1C (configuration not stated),> 5

# Tested on: HOS;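 note: growth inhibition of human HOS cells, read out with a cell viability assay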
# Experiment: cells
# Format: functional, cell-based, Homo sapiens
# Settings: Homo sapiens, HOS
# Description: SANGER: Inhibition of human HOS cell growth in a cell viability assay.
row,Structure (SMILES),IC50 [µM]
1,CC(C)CCN1c2nc(Nc3cc(F)c(O)c(F)c3)ncc2N(C)C(=O)C1C (configuration not stated),4.46

# Tested on: PANC-08-13;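 note: cell growth inhibition, measured with a cell viability assay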
# Experiment: cells
# Format: functional, cell-based, Homo sapiens
# Settings: Homo sapiens, PANC-08-13
# Description: SANGER: Inhibition of human PANC-08-13 cell growth in a cell viability assay.
row,Structure (SMILES),IC50 [µM]
1,CC(C)CCN1c2nc(Nc3cc(F)c(O)c(F)c3)ncc2N(C)C(=O)C1C (configuration not stated),> 5

# Tested on: RT-112
# Experiment: cells
# Format: functional, cell-based, Homo sapiens
# Settings: Homo sapiens, RT-112
# Description: SANGER: Inhibition of human RT-112 cell growth in a cell viability assay.
row,Structure (SMILES),IC50 [µM]
1,CC(C)CCN1c2nc(Nc3cc(F)c(O)c(F)c3)ncc2N(C)C(=O)C1C (configuration not stated),> 5

# Tested on: BCPAP;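 note: growth inhibition of BCPAP cells, read out in a cell viability assay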
# Experiment: cells
# Format: functional, cell-based, Homo sapiens
# Settings: Homo sapiens, BCPAP
# Description: SANGER: Inhibition of human BCPAP cell growth in a cell viability assay.
row,Structure (SMILES),IC50 [µM]
1,CC(C)CCN1c2nc(Nc3cc(F)c(O)c(F)c3)ncc2N(C)C(=O)C1C (configuration not stated),> 5

# Tested on: HuO9;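 note: growth inhibition of HuO9 cells, read out with a cell viability assay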
# Experiment: cells
# Format: functional, cell-based, Homo sapiens
# Settings: Homo sapiens, HuO9
# Description: SANGER: Inhibition of human HuO9 cell growth in a cell viability assay.
row,Structure (SMILES),IC50 [µM]
1,CC(C)CCN1c2nc(Nc3cc(F)c(O)c(F)c3)ncc2N(C)C(=O)C1C (configuration not stated),2.37

# Tested on: MC-IXC;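 note: growth inhibition of MC-IXC cells, read out with a cell viability assay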
# Experiment: cells
# Format: functional, cell-based, Homo sapiens
# Settings: Homo sapiens, MC-IXC
# Description: SANGER: Inhibition of human MC-IXC cell growth in a cell viability assay.
row,Structure (SMILES),IC50 [µM]
1,CC(C)CCN1c2nc(Nc3cc(F)c(O)c(F)c3)ncc2N(C)C(=O)C1C (configuration not stated),0.796

# Tested on: A2058;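 note: reduction of A2058 cell growth, read out with a viability assay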
# Experiment: cells
# Format: functional, cell-based, Homo sapiens
# Settings: Homo sapiens, A2058
# Description: SANGER: Inhibition of human A2058 cell growth in a cell viability assay.
row,Structure (SMILES),IC50 [µM]
1,CC(C)CCN1c2nc(Nc3cc(F)c(O)c(F)c3)ncc2N(C)C(=O)C1C (configuration not stated),> 5

# Tested on: HCC38;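 note: cell viability assay on the human HCC38 cell line, with IC50 marking the concentration that inhibits cell growth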
# Experiment: cells
# Format: functional, cell-based, Homo sapiens
# Settings: Homo sapiens, HCC38
# Description: SANGER: Inhibition of human HCC38 cell growth in a cell viability assay.
row,Structure (SMILES),IC50 [µM]
1,CC(C)CCN1c2nc(Nc3cc(F)c(O)c(F)c3)ncc2N(C)C(=O)C1C (configuration not stated),> 5

# Tested on: HT-3;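 note: growth inhibition measured with a cell viability readout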
# Experiment: cells
# Format: functional, cell-based, Homo sapiens
# Settings: Homo sapiens, HT-3
# Description: SANGER: Inhibition of human HT-3 cell growth in a cell viability assay.
row,Structure (SMILES),IC50 [µM]
1,CC(C)CCN1c2nc(Nc3cc(F)c(O)c(F)c3)ncc2N(C)C(=O)C1C (configuration not stated),2.51

# Tested on: UACC-893
# Experiment: cells
# Format: functional, cell-based, Homo sapiens
# Settings: Homo sapiens, UACC-893
# Description: SANGER: Inhibition of human UACC-893 cell growth in a cell viability assay.
row,Structure (SMILES),IC50 [µM]
1,CC(C)CCN1c2nc(Nc3cc(F)c(O)c(F)c3)ncc2N(C)C(=O)C1C (configuration not stated),> 5

# Tested on: AN3-CA;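 note: growth inhibition of human AN3-CA cells measured by a cell viability assay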
# Experiment: cells
# Format: functional, cell-based, Homo sapiens
# Settings: Homo sapiens, AN3-CA
# Description: SANGER: Inhibition of human AN3-CA cell growth in a cell viability assay.
row,Structure (SMILES),IC50 [µM]
1,CC(C)CCN1c2nc(Nc3cc(F)c(O)c(F)c3)ncc2N(C)C(=O)C1C (configuration not stated),> 5

# Tested on: DOK;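 note: cell viability assay read-out, values reflect inhibition of cell growth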
# Experiment: cells
# Format: functional, cell-based, Homo sapiens
# Settings: Homo sapiens, DOK
# Description: SANGER: Inhibition of human DOK cell growth in a cell viability assay.
row,Structure (SMILES),IC50 [µM]
1,CC(C)CCN1c2nc(Nc3cc(F)c(O)c(F)c3)ncc2N(C)C(=O)C1C (configuration not stated),3.77

# Tested on: A-431;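 note: growth inhibition of A-431 cells, determined with a cell viability read-out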
# Experiment: cells
# Format: functional, cell-based, Homo sapiens
# Settings: Homo sapiens, A-431
# Description: SANGER: Inhibition of human A431 cell growth in a cell viability assay.
row,Structure (SMILES),IC50 [µM]
1,CC(C)CCN1c2nc(Nc3cc(F)c(O)c(F)c3)ncc2N(C)C(=O)C1C (configuration not stated),4.14

# Tested on: COLO-679
# Experiment: cells
# Format: functional, cell-based, Homo sapiens
# Settings: Homo sapiens, COLO-679
# Description: SANGER: Inhibition of human COLO-679 cell growth in a cell viability assay.
row,Structure (SMILES),IC50 [µM]
1,CC(C)CCN1c2nc(Nc3cc(F)c(O)c(F)c3)ncc2N(C)C(=O)C1C (configuration not stated),> 5

# Tested on: C-33-A;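 note: cell viability assay measuring growth inhibition of C-33-A cells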
# Experiment: cells
# Format: functional, cell-based, Homo sapiens
# Settings: Homo sapiens, C-33-A
# Description: SANGER: Inhibition of human C-33-A cell growth in a cell viability assay.
row,Structure (SMILES),IC50 [µM]
1,CC(C)CCN1c2nc(Nc3cc(F)c(O)c(F)c3)ncc2N(C)C(=O)C1C (configuration not stated),> 5

# Tested on: NCI-H292;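 note: growth inhibition of NCI-H292 cells, read out with a cell viability assay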
# Experiment: cells
# Format: functional, cell-based, Homo sapiens
# Settings: Homo sapiens, NCI-H292
# Description: SANGER: Inhibition of human NCI-H292 cell growth in a cell viability assay.
row,Structure (SMILES),IC50 [µM]
1,CC(C)CCN1c2nc(Nc3cc(F)c(O)c(F)c3)ncc2N(C)C(=O)C1C (configuration not stated),1.46

# Tested on: FaDu;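 note: cell viability readout of growth inhibition in FaDu cells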
# Experiment: cells
# Format: functional, cell-based, Homo sapiens
# Settings: Homo sapiens, FaDu
# Description: SANGER: Inhibition of human FADU cell growth in a cell viability assay.
row,Structure (SMILES),IC50 [µM]
1,CC(C)CCN1c2nc(Nc3cc(F)c(O)c(F)c3)ncc2N(C)C(=O)C1C (configuration not stated),> 5

# Tested on: J82;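 note: growth inhibition of J82 cells, read out with a cell viability assay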
# Experiment: cells
# Format: functional, cell-based, Homo sapiens
# Settings: Homo sapiens, J82
# Description: SANGER: Inhibition of human J82 cell growth in a cell viability assay.
row,Structure (SMILES),IC50 [µM]
1,CC(C)CCN1c2nc(Nc3cc(F)c(O)c(F)c3)ncc2N(C)C(=O)C1C (configuration not stated),> 5

# Tested on: MKN-1;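 note: growth inhibition of human MKN1 cells, read out by a cell viability measurement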
# Experiment: cells
# Format: functional, cell-based, Homo sapiens
# Settings: Homo sapiens, MKN-1
# Description: SANGER: Inhibition of human MKN1 cell growth in a cell viability assay.
row,Structure (SMILES),IC50 [µM]
1,CC(C)CCN1c2nc(Nc3cc(F)c(O)c(F)c3)ncc2N(C)C(=O)C1C (configuration not stated),3.21

# Tested on: SNU-387
# Experiment: cells
# Format: functional, cell-based, Homo sapiens
# Settings: Homo sapiens, SNU-387
# Description: SANGER: Inhibition of human SNU-387 cell growth in a cell viability assay.
row,Structure (SMILES),IC50 [µM]
1,CC(C)CCN1c2nc(Nc3cc(F)c(O)c(F)c3)ncc2N(C)C(=O)C1C (configuration not stated),> 5

# Tested on: DK-MG;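 note: growth inhibition of DK-MG cells, read out with a cell viability assay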
# Experiment: cells
# Format: functional, cell-based, Homo sapiens
# Settings: Homo sapiens, DK-MG
# Description: SANGER: Inhibition of human DK-MG cell growth in a cell viability assay.
row,Structure (SMILES),IC50 [µM]
1,CC(C)CCN1c2nc(Nc3cc(F)c(O)c(F)c3)ncc2N(C)C(=O)C1C (configuration not stated),> 5

# Tested on: A204;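 note: growth inhibition of human A204 cells, read out with a cell viability assay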
# Experiment: cells
# Format: functional, cell-based, Homo sapiens
# Settings: Homo sapiens, A204
# Description: SANGER: Inhibition of human A204 cell growth in a cell viability assay.
row,Structure (SMILES),IC50 [µM]
1,CC(C)CCN1c2nc(Nc3cc(F)c(O)c(F)c3)ncc2N(C)C(=O)C1C (configuration not stated),> 5

# Tested on: H-EMC-SS
# Experiment: cells
# Format: functional, cell-based, Homo sapiens
# Settings: Homo sapiens, H-EMC-SS
# Description: SANGER: Inhibition of human H-EMC-SS cell growth in a cell viability assay.
row,Structure (SMILES),IC50 [µM]
1,CC(C)CCN1c2nc(Nc3cc(F)c(O)c(F)c3)ncc2N(C)C(=O)C1C (configuration not stated),> 5

# Tested on: COLO-680N;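 note: cell viability assay used to measure inhibition of COLO-680N cell growth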
# Experiment: cells
# Format: functional, cell-based, Homo sapiens
# Settings: Homo sapiens, COLO-680N
# Description: SANGER: Inhibition of human COLO-680N cell growth in a cell viability assay.
row,Structure (SMILES),IC50 [µM]
1,CC(C)CCN1c2nc(Nc3cc(F)c(O)c(F)c3)ncc2N(C)C(=O)C1C (configuration not stated),> 5

# Tested on: BT-20;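 note: cell viability assay measuring suppression of growth in human BT-20 cells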
# Experiment: cells
# Format: functional, cell-based, Homo sapiens
# Settings: Homo sapiens, BT-20
# Description: SANGER: Inhibition of human BT-20 cell growth in a cell viability assay.
row,Structure (SMILES),IC50 [µM]
1,CC(C)CCN1c2nc(Nc3cc(F)c(O)c(F)c3)ncc2N(C)C(=O)C1C (configuration not stated),> 5

# Tested on: BHY;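 note: cell growth inhibition read out by a viability assay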
# Experiment: cells
# Format: functional, cell-based, Homo sapiens
# Settings: Homo sapiens, BHY
# Description: SANGER: Inhibition of human BHY cell growth in a cell viability assay.
row,Structure (SMILES),IC50 [µM]
1,CC(C)CCN1c2nc(Nc3cc(F)c(O)c(F)c3)ncc2N(C)C(=O)C1C (configuration not stated),> 5

# Tested on: NCI-H2052;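 note: growth inhibition of NCI-H2052 cells, read out with a cell viability assay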
# Experiment: cells
# Format: functional, cell-based, Homo sapiens
# Settings: Homo sapiens, NCI-H2052
# Description: SANGER: Inhibition of human NCI-H2052 cell growth in a cell viability assay.
row,Structure (SMILES),IC50 [µM]
1,CC(C)CCN1c2nc(Nc3cc(F)c(O)c(F)c3)ncc2N(C)C(=O)C1C (configuration not stated),> 5

# Tested on: NCI-H1563;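 note: growth inhibition of human NCI-H1563 cells, read out with a cell viability assay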
# Experiment: cells
# Format: functional, cell-based, Homo sapiens
# Settings: Homo sapiens, NCI-H1563
# Description: SANGER: Inhibition of human NCI-H1563 cell growth in a cell viability assay.
row,Structure (SMILES),IC50 [µM]
1,CC(C)CCN1c2nc(Nc3cc(F)c(O)c(F)c3)ncc2N(C)C(=O)C1C (configuration not stated),> 5

# Tested on: NCI-H2029;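 note: Read-out is a viability assay on the cultured cells, and IC50 is the concentration that suppresses cell growth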
# Experiment: cells
# Format: functional, cell-based, Homo sapiens
# Settings: Homo sapiens, NCI-H2029
# Description: SANGER: Inhibition of human NCI-H2029 cell growth in a cell viability assay.
row,Structure (SMILES),IC50 [µM]
1,CC(C)CCN1c2nc(Nc3cc(F)c(O)c(F)c3)ncc2N(C)C(=O)C1C (configuration not stated),1.97

# Tested on: SW837;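 note: growth inhibition of SW837 cells, determined with a cell viability assay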
# Experiment: cells
# Format: functional, cell-based, Homo sapiens
# Settings: Homo sapiens, SW837
# Description: SANGER: Inhibition of human SW837 cell growth in a cell viability assay.
row,Structure (SMILES),IC50 [µM]
1,CC(C)CCN1c2nc(Nc3cc(F)c(O)c(F)c3)ncc2N(C)C(=O)C1C (configuration not stated),> 5

# Tested on: CP50-MEL-B;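 note: growth inhibition of the human cell line, measured with a cell viability read-out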
# Experiment: cells
# Format: functional, cell-based, Homo sapiens
# Settings: Homo sapiens, CP50-MEL-B
# Description: SANGER: Inhibition of human CP50-MEL-B cell growth in a cell viability assay.
row,Structure (SMILES),IC50 [µM]
1,CC(C)CCN1c2nc(Nc3cc(F)c(O)c(F)c3)ncc2N(C)C(=O)C1C (configuration not stated),> 5

# Tested on: MHH-ES-1;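 note: cell growth inhibition measured by a cell viability assay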
# Experiment: cells
# Format: functional, cell-based, Homo sapiens
# Settings: Homo sapiens, MHH-ES-1
# Description: SANGER: Inhibition of human MHH-ES-1 cell growth in a cell viability assay.
row,Structure (SMILES),IC50 [µM]
1,CC(C)CCN1c2nc(Nc3cc(F)c(O)c(F)c3)ncc2N(C)C(=O)C1C (configuration not stated),4.83
